Test results from PubChem BioAssay (NCI).
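Tested at 5 concentrations; 48 h exposure; 96-well plates; endpoints linearly interpolated, else capped at highest concentration. The concentration for 50% growth inhibition is given as GI50. TGI: concentration producing complete growth inhibition.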

How the values were obtained:
Test in all cases: DTP human tumour cell line panel, 48 h
[1] = test system: HOP-92 NSCLC
[2] = test system: NCI-H226 lung
[3] = test system: MDA-MB-435
[4] = test system: MCF7 breast
[5] = test system: CCRF-CEM leukemia
[6] = test system: HS 578T breast
[7] = test system: UACC-62 melanoma
[8] = test system: HCT-15 colon
[9] = test system: SF-295 CNS
[10] = test system: TK-10 renal
[11] = test system: NCI-H23 lung
[12] = test system: CAKI-1 renal
[13] = test system: MALME-3M melanoma
[14] = test system: SNB-19 CNS
[15] = test system: OVCAR-8 ovarian
[16] = test system: A498 renal
[17] = test system: SF-539 CNS
[18] = test system: SNB-75 CNS
[19] = test system: NCI-H522 lung
[20] = test system: KM12 colon
[21] = test system: COLO 205 colon
[22] = test system: IGROV1 ovarian
[23] = test system: MDA-MB-231 breast
[24] = test system: EKVX NSCLC
[25] = test system: UO-31 renal
[26] = test system: U251 CNS
[27] = test system: 786-0 renal
[28] = test system: HOP-62 NSCLC
[29] = test system: RXF 393 renal
[30] = test system: SW-620 colon
[31] = test system: SF-268 CNS
[32] = test system: MDA-MB-468 breast
[33] = test system: SK-OV-3 ovarian
[34] = test system: SK-MEL-2 melanoma
[35] = test system: HCC-2998 colon
[36] = test system: OVCAR-3 ovarian
[37] = test system: SN12C renal
[38] = test system: T-47D breast
[39] = test system: OVCAR-4 ovarian
[40] = test system: RPMI-8226 leukemia
[41] = test system: NCI/ADR-RES ovarian
[42] = test system: K-562 leukemia
[43] = test system: A549 NSCLC
[44] = test system: ACHN renal
[45] = test system: SK-MEL-28 melanoma
[46] = test system: LOX IMVI melanoma
[47] = test system: SK-MEL-5 melanoma
[48] = test system: OVCAR-5 ovarian
[49] = test system: BT-549 breast
[50] = test system: NCI-H460 lung
[51] = test system: DU-145 prostate
[52] = test system: HCT-116 colon
[53] = test system: SR leukemia
[54] = test system: HL-60(TB) leukemia
[55] = test system: HT29 colon
[56] = test system: UACC-257 melanoma
[57] = test system: MOLT-4 leukemia
[58] = test system: M14 melanoma
[59] = test system: PC-3 prostate

SMILES: Cc1ccc(/C(CSc2nnc(-c3c[nH]c4ccccc34)n2-c2ccccc2)=N/O)cc1
- GI50 [1]: 11.9 µM
- TGI [1]: 37.4 µM
- GI50 [2]: 1.63 µM
- TGI [2]: 3.36 µM
- GI50 [3]: 1.63 µM
- TGI [3]: 3.05 µM
- GI50 [4]: 2.42 µM
- TGI [4]: 7.01 µM
- GI50 [5]: 2.14 µM
- TGI [5]: 4.98 µM
- GI50 [6]: 2.07 µM
- TGI [6]: 4.82 µM
- GI50 [7]: 1.69 µM
- TGI [7]: 3.26 µM
- GI50 [8]: 1.75 µM
- TGI [8]: 3.34 µM
- GI50 [9]: 1.64 µM
- TGI [9]: 3.18 µM
- GI50 [10]: 1.9 µM
- TGI [10]: 3.87 µM
- GI50 [11]: 10.1 µM
- TGI [11]: 52.2 µM
- GI50 [12]: 1.63 µM
- TGI [12]: 3.06 µM
- GI50 [13]: 2.26 µM
- TGI [13]: 5.57 µM
- GI50 [14]: 1.87 µM
- TGI [14]: 3.97 µM
- GI50 [15]: 2.19 µM
- TGI [15]: 4.89 µM
- GI50 [16]: 24.8 µM
- TGI [16]: 89.1 µM
- GI50 [17]: 2.06 µM
- TGI [17]: 4.41 µM
- GI50 [18]: 1.4 µM
- TGI [18]: 2.77 µM
- GI50 [19]: 2.24 µM
- TGI [19]: 6.04 µM
- GI50 [20]: 8.65 µM
- TGI [20]: > 100 µM
- GI50 [21]: 3.77 µM
- TGI [21]: 37.4 µM
- GI50 [22]: 2.09 µM
- TGI [22]: 4.35 µM
- GI50 [23]: 1.77 µM
- TGI [23]: 3.33 µM
- GI50 [24]: 2.15 µM
- TGI [24]: 5.58 µM
- GI50 [25]: 1.82 µM
- TGI [25]: 4.15 µM
- GI50 [26]: 8.22 µM
- TGI [26]: > 100 µM
- GI50 [27]: 10 µM
- TGI [27]: 31.4 µM
- GI50 [28]: 1.69 µM
- TGI [28]: 3.42 µM
- GI50 [29]: 1.85 µM
- TGI [29]: 3.76 µM
- GI50 [30]: 1.79 µM
- TGI [30]: 3.55 µM
- GI50 [31]: 1.99 µM
- TGI [31]: 4.66 µM
- GI50 [32]: 1.5 µM
- TGI [32]: 2.91 µM
- GI50 [33]: 1.68 µM
- TGI [33]: 3.64 µM
- GI50 [34]: 2.88 µM
- TGI [34]: 8.96 µM
- GI50 [35]: 2.09 µM
- TGI [35]: 3.93 µM
- GI50 [36]: 4.26 µM
- TGI [36]: 25.5 µM
- GI50 [37]: 2.33 µM
- TGI [37]: 6.8 µM
- GI50 [38]: 2.07 µM
- TGI [38]: 4.75 µM
- GI50 [39]: 1.75 µM
- TGI [39]: 3.51 µM
- GI50 [40]: 2.05 µM
- TGI [40]: 4.81 µM
- GI50 [41]: 2 µM
- TGI [41]: 3.9 µM
- GI50 [42]: 2.01 µM
- TGI [42]: 4.97 µM
- GI50 [43]: 3.55 µM
- TGI [43]: 69.7 µM
- GI50 [44]: 1.79 µM
- TGI [44]: 3.35 µM
- GI50 [45]: 5.67 µM
- TGI [45]: 38.7 µM
- GI50 [46]: 1.75 µM
- TGI [46]: 3.17 µM
- GI50 [47]: 4.76 µM
- TGI [47]: 48.1 µM
- GI50 [48]: 1.69 µM
- TGI [48]: 3.11 µM
- GI50 [49]: 1.59 µM
- TGI [49]: 3.03 µM
- GI50 [50]: 3.18 µM
- TGI [50]: 12.2 µM

SMILES: COc1ccc(-c2ccnc(SCc3cc4cc(Cl)ccc4[nH]c3=O)n2)cc1
- GI50 [1]: 5.49 µM
- TGI [1]: 39.8 µM
- GI50 [2]: 2.96 µM
- TGI [2]: 10.4 µM
- GI50 [3]: 14.4 µM
- TGI [3]: > 100 µM
- GI50 [4]: 8.74 µM
- TGI [4]: 58.1 µM
- GI50 [5]: 16 µM
- TGI [5]: > 100 µM
- GI50 [51]: 10.2 µM
- TGI [51]: 24.2 µM
- GI50 [6]: 2.77 µM
- TGI [6]: 9.75 µM
- GI50 [52]: 14 µM
- TGI [52]: > 100 µM
- GI50 [7]: 14.8 µM
- TGI [7]: 53.2 µM
- GI50 [8]: 29 µM
- TGI [8]: > 100 µM
- GI50 [9]: 5.49 µM
- TGI [9]: 26.8 µM
- GI50 [10]: 26.3 µM
- TGI [10]: 90 µM
- GI50 [53]: 21.6 µM
- TGI [53]: > 100 µM
- GI50 [11]: 13.7 µM
- TGI [11]: 45.1 µM
- GI50 [12]: 7.7 µM
- TGI [12]: 27.1 µM
- GI50 [13]: 4.72 µM
- TGI [13]: 27.4 µM
- GI50 [14]: 3.7 µM
- TGI [14]: 28.6 µM
- GI50 [15]: 4.9 µM
- TGI [15]: > 100 µM
- GI50 [16]: 17.5 µM
- TGI [16]: 46.2 µM
- GI50 [17]: 3.16 µM
- TGI [17]: 14.8 µM
- GI50 [18]: 1.69 µM
- TGI [18]: 3.98 µM
- GI50 [19]: 5.18 µM
- TGI [19]: 32.4 µM
- GI50 [20]: 19.9 µM
- TGI [20]: > 100 µM
- GI50 [21]: 44.8 µM
- TGI [21]: > 100 µM
- GI50 [22]: 27.1 µM
- TGI [22]: > 100 µM
- GI50 [23]: 9.03 µM
- TGI [23]: 32.2 µM
- GI50 [24]: 12.2 µM
- TGI [24]: 64.9 µM
- GI50 [25]: 14.5 µM
- TGI [25]: 54.4 µM
- GI50 [26]: 13.5 µM
- TGI [26]: 46.6 µM
- GI50 [27]: 15.1 µM
- TGI [27]: 36.5 µM
- GI50 [54]: > 100 µM
- TGI [54]: > 100 µM
- GI50 [28]: 3.45 µM
- TGI [28]: 16.6 µM
- GI50 [29]: 2.27 µM
- TGI [29]: 8.31 µM
- GI50 [55]: 53.6 µM
- TGI [55]: > 100 µM
- GI50 [56]: 16.4 µM
- TGI [56]: 82 µM
- GI50 [57]: 38.6 µM
- TGI [57]: > 100 µM
- GI50 [30]: 26.2 µM
- TGI [30]: > 100 µM
- GI50 [31]: 3.41 µM
- TGI [31]: 20.4 µM
- GI50 [32]: 5.59 µM
- TGI [32]: 35.9 µM
- GI50 [33]: 4.97 µM
- TGI [33]: 21.2 µM
- GI50 [34]: 14.6 µM
- TGI [34]: 39.2 µM
- GI50 [58]: 25 µM
- TGI [58]: > 100 µM
- GI50 [35]: 27.6 µM
- TGI [35]: > 100 µM
- GI50 [36]: 9.93 µM
- TGI [36]: 27.2 µM
- GI50 [59]: 6.9 µM
- TGI [59]: 45.7 µM
- GI50 [37]: 11.6 µM
- TGI [37]: > 100 µM
- GI50 [38]: 19.7 µM
- TGI [38]: > 100 µM
- GI50 [39]: 3.85 µM
- TGI [39]: 24.5 µM
- GI50 [40]: 16.8 µM
- TGI [40]: > 100 µM
- GI50 [42]: 31.2 µM
- TGI [42]: > 100 µM
- GI50 [43]: 15.6 µM
- TGI [43]: > 100 µM
- GI50 [44]: 5.64 µM
- TGI [44]: 19.8 µM
- GI50 [45]: 7.39 µM
- TGI [45]: 31.6 µM
- GI50 [46]: 15 µM
- TGI [46]: > 100 µM
- GI50 [47]: 14.2 µM
- TGI [47]: 71.6 µM
- GI50 [48]: 21 µM
- TGI [48]: 85.8 µM
- GI50 [49]: 6.21 µM
- TGI [49]: 33.2 µM
- GI50 [50]: 5.63 µM
- TGI [50]: 58.7 µM
